Results: patent US8916593B2, “Alkoxy-substituted 2-aminopyridines as ALK inhibitors” (Pfizer Inc., priority 2010, dated 2014)

Tests used:
[1] = biological target: T1, human recombinant wild-type ALK kinase domain (amino acids 1093-1411) (Homo sapiens, UniProt Q9UM73); assay: ALK enzyme assay 2 (microfluidic mobility shift assay); type: biochemical;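 note: kinase reaction run 1 h at room temperature, conversion quantified by electrophoretic separation of fluorescent peptide substrate from phosphorylated product, about 15-20% turnover without inhibitor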
T1 construct: ALK kinase domain (amino acids 1093-1411); made in house
Method: The reactions were incubated for 1 h at room temperature, stopped by the addition of 0.1 M EDTA, pH 8, and the extent of reactions (˜15-20% conversion with no inhibitor) was determined after electrophoretic separation of the fluorescently labeled peptide substrate and phosphorylated product on an LabChip EZ Reader II (Caliper Life Sciences, Hopkinton, Mass.).

[2] = biological target: EML4-ALK wt v1 in NIH-3T3 cells (Homo sapiens, UniProt Q9UM73)
EML4-ALK wt v1 in NIH-3T3 cells, sequence (Q9UM73 with tags, fused parts or gaps): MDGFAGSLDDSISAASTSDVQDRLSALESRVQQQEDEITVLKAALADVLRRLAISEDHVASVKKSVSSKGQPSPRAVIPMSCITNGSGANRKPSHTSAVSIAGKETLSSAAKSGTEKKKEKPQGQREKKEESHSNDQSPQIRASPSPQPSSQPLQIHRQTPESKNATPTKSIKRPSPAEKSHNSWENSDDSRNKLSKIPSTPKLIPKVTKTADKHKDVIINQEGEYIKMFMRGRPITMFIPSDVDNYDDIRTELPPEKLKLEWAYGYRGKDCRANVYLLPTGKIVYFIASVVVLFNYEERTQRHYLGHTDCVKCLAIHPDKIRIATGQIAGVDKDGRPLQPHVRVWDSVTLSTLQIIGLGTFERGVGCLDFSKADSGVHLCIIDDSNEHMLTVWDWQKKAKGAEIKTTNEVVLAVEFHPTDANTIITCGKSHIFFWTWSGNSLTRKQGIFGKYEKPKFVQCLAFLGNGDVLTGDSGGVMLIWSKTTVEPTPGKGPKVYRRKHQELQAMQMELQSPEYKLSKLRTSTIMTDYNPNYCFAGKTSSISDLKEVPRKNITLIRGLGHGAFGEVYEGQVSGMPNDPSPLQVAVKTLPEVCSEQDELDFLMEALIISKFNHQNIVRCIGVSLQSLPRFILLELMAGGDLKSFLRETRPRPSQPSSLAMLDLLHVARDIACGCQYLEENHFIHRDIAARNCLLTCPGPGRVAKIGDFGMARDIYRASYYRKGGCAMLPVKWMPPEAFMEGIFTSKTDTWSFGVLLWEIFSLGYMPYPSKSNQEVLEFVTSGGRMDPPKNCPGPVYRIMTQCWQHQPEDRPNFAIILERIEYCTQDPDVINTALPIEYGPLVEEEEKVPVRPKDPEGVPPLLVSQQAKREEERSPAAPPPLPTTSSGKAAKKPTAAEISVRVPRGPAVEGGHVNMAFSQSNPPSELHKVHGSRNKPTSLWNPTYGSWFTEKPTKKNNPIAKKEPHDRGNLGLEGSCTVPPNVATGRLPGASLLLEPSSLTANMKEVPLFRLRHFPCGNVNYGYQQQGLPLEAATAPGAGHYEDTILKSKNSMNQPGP

T1 sequence (Q9UM73 1093-1411): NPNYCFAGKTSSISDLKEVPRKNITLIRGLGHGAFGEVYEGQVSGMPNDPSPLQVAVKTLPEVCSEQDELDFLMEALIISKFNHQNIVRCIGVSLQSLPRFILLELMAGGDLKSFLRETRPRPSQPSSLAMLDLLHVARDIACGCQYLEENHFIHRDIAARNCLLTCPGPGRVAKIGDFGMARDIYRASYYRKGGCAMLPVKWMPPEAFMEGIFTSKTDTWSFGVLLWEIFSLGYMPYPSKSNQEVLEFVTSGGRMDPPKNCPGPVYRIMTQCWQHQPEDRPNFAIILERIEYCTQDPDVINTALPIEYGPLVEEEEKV

| Structure (SMILES) | Ki [1] [nM] | IC50 [2] [nM] |
| --- | --- | --- |
| C[C@@H](Oc1cc(-c2c[nH]nc2C#N)cnc1N)c1cc(F)ccc1-n1nccn1 [Example 116, 4-(6-amino-5-{(1R)-1-[5-fluoro-2-(2H-1,2,3-triazol-2-yl)phenyl]ethoxy}pyridin-3-yl)-1H-pyrazole-3-carbonitrile] | < 0.2 | 4.17 |
| CC(O)Cn1cc(-c2cnc(N)c(O[C@H](C)c3cc(F)ccc3-n3nccn3)c2)cn1 (stereo partly drawn) [Example 77, 1-[4-(6-amino-5-{(1R)-1-[5-fluoro-2-(2H-1,2,3-triazol-2-yl)phenyl]ethoxy}pyridin-3-yl)-1H-pyrazol-1-yl]propan-2-ol] | 0.2 | 15.3 |
| C[C@@H](Oc1nc(-c2ccc(C(N)=O)nc2)cnc1N)c1cc(F)ccc1-n1nccn1 [Example 64, 5-(5-amino-6-{(1R)-1-[5-fluoro-2-(2H-1,2,3-triazol-2-yl)phenyl]ethoxy}pyrazin-2-yl)pyridine-2-carboxamide] | 2.4 | 123 |
| C[C@@H](Oc1cc(-c2cccc3c2CNC3=O)cnc1N)c1cc(F)ccc1-n1nccn1 [Example 85, 4-(6-Amino-5-((R)-1-(5-fluoro-2-(2H-1,2,3-triazol-2-yl)phenyl)ethoxy)pyridin-3-yl)isoindolin-1-one] | 0.37 | 6.81 |
| CC(C)n1cc(-c2cnc(N)c(O[C@H](C)c3cc(F)ccc3-n3nccn3)c2)cn1 [Example 76, 3-{(1R)-1-[5-fluoro-2-(2H-1,2,3-triazol-2-yl)phenyl]ethoxy}-5-[1-(propan-2-yl)-1H-pyrazol-4-yl]pyridin-2-amine] | 0.216 | 25.5 |
| COc1ccc(F)cc1C(C)Oc1nc(-c2cc(S(C)(=O)=O)cnc2OC)cnc1N (stereo not drawn) [Example 102, 3-[1-(5-fluoro-2-methoxyphenyl)ethoxy]-5-[2-methoxy-5-(methylsulfonyl)pyridin-3-yl]pyrazin-2-amine] | 1.21 | 89.3 |
| C[C@@H](Oc1nc(-c2ccnc(N3CCN(C)CC3)c2)cnc1N)c1cc(F)ccc1-n1nccn1 [Example 70, 3-{(1R)-1-[5-fluoro-2-(2H-1,2,3-triazol-2-yl)phenyl]ethoxy}-5-[2-(4-methylpiperazin-1-yl)pyridin-4-yl]pyrazin-2-amine] | < 0.2 | 5.48 |
| CCc1nc(CS(C)(=O)=O)sc1-c1cnc(N)c(O[C@H](C)c2cc(F)ccc2-n2nccn2)c1 [Example 145, (R)-5-(4-ethyl-2-((methylsulfonyl)methyl)thiazol-5-yl)-3-(1-(5-fluoro-2-(2H-1,2,3-triazol-2-yl)phenyl)ethoxy)pyridin-2-amine] | < 0.2 | 10.5 |
| C[C@@H](Oc1cc(-c2csc(CO)n2)cnc1N)c1cc(F)ccc1-n1nccn1 [Example 105, [4-(6-amino-5-{(1R)-1-[5-fluoro-2-(2H-1,2,3-triazol-2-yl)phenyl]ethoxy}pyridin-3-yl)-1,3-thiazol-2-yl]methanol] | 4.1 | 166 |
| Cc1n[nH]c(C)c1-c1cnc(N)c(O[C@H](C)c2cc(F)ccc2-n2nccn2)c1 [Example 126, 5-(3,5-Dimethyl-1H-pyrazol-4-yl)-3-{(1R)-1-[5-fluoro-2-(2H-1,2,3-triazol-2-yl)phenyl]ethoxy}pyridin-2-amine] | < 0.193 | 12.1 |
| Cc1nn([C@H]2CCS(=O)(=O)C2)c(C)c1-c1cnc(N)c(O[C@H](C)c2cc(F)ccc2-n2nccn2)c1 [Example 127, 5-{1-[(3S)-1,1-dioxidotetrahydrothiophen-3-yl]-3,5-dimethyl-1H-pyrazol-4-yl}-3-{(1R)-1-[5-fluoro-2-(2H-1,2,3-triazol-2-yl)phenyl]ethoxy}pyridin-2-amine] | < 0.2 | 2.54 |
| CNC(=O)c1ncc(-c2cnc(N)c(O[C@H](C)c3cc(F)ccc3-n3nccn3)c2)cn1 [Example 92, 5-(6-amino-5-{(1R)-1-[5-fluoro-2-(2H-1,2,3-triazol-2-yl)phenyl]ethoxy}pyridin-3-yl)-N-methylpyrimidine-2-carboxamide] | 7.2 | 729 |
| CCn1cc(-c2cnc(N)c(O[C@H](C)c3cc(F)ccc3-n3nccn3)c2)ccc1=O [Example 82, 6′-amino-1-ethyl-5′-{(1R)-1-[5-fluoro-2-(2H-1,2,3-triazol-2-yl)phenyl]ethoxy}-3,3′-bipyridin-6(1H)-one] | < 0.2 | 75.3 |
| C[C@@H](Oc1cc(-c2ccnc(N3CCN(C)CC3)c2F)cnc1N)c1cc(F)ccc1-n1nccn1 [Example 132, 3′-fluoro-5-{(1R)-1-[5-fluoro-2-(2H-1,2,3-triazol-2-yl)phenyl]ethoxy}-2,-(4-methylpiperazin-1-yl)-3,4′-bipyridin-6-amine] | < 0.2 | 5.67 |
| CNCc1ccc(-c2cnc(N)c(O[C@H](C)c3cc(F)ccc3-n3nccn3)c2)c(OC)n1 [Example 100, 5-{(1R)-1-[5-fluoro-2-(2H-1,2,3-triazol-2-yl)phenyl]ethoxy}-2′-methoxy-6′-[(methylamino)methyl]-3,3′-bipyridin-6-amine] | < 0.2 | 12.2 |
| C[C@@H](Oc1cc(-c2cccc(CS(C)(=O)=O)c2)cnc1N)c1cc(F)ccc1-n1nccn1 [Example 87, 3-{(1R)-1-[5-fluoro-2-(2H-1,2,3-triazol-2-yl)phenyl]ethoxy}-5-{3-[(methylsulfonyl)methyl]phenyl}pyridin-2-amine] | < 0.2 | 4.14 |
| C[C@@H](Oc1cc(-c2cnn([C@@H]3C[C@H]4CC[C@@H](C3)N4)c2C#N)cnc1N)c1cc(F)ccc1-n1nccn1 [Example 141, 4-(6-amino-5-{(1R)-1-[5-fluoro-2-(2H-1,2,3-triazol-2-yl)phenyl]ethoxy}pyridin-3-yl)-1-[(3-exo)-8-azabicyclo[3.2.1]oct-3-yl]-1H-pyrazole-5-carbonitrile] | < 0.2 | 3.5 |
| CNS(=O)(=O)c1ccc(OC)c(-c2cnc(N)c(O[C@H](C)c3cc(F)ccc3-n3nccn3)c2)c1 [Example 143, 3-(6-amino-5-{(1R)-1-[5-fluoro-2-(2H-1,2,3-triazol-2-yl)phenyl]ethoxy}pyridin-3-yl)-4-methoxy-N-methylbenzenesulfonamide] | < 0.2 | 8.98 |
| COc1ccc(F)cc1C(C)Oc1cc(-c2nsc(S(C)(=O)=O)n2)cnc1N (stereo not drawn) [Example 133, 3-[1-(5-fluoro-2-methoxyphenyl)ethoxy]-5-[5-(methylsulfonyl)-1,2,4-thiadiazol-3-yl]pyridin-2-amine] | 1.28 | 687 |
| Cc1n[nH]cc1-c1cnc(N)c(OC(C)c2cc(F)ccc2N2CCCC2=O)n1 (stereo not drawn) [Example 65, 1-[2-(1-{[3-amino-6-(3-methyl-1H-pyrazol-4-yl)pyrazin-2-yl]oxy}ethyl)-4-fluorophenyl]pyrroli-din-2-one] | 5.1 | 193 |
| C[C@@H](Oc1cc(-c2cnn(C3CCNC3)c2)cnc1N)c1cc(F)ccc1-n1nccn1 (stereo partly drawn) [Example 81, 3-{(1R)-1-[5-fluoro-2-(2H-1,2,3-triazol-2-yl)phenyl]ethoxy}-5-[1-(pyrrolidin-3-yl)-1H-pyrazol-4-yl]pyridin-2-amine] | < 0.2 | 9.9 |
| COc1ccc(F)cc1C(C)Oc1cc(-c2ccc(C(C)N)nc2)cnc1N (stereo not drawn) [Example 138, 6′-(1-aminoethyl)-5-[1-(5-fluoro-2-methoxyphenyl)ethoxy]-3,3′-bipyridin-6-amine] | 0.32 | 8.33 |
| Cc1nc(-c2cnc(N)c(O[C@H](C)c3cc(F)ccc3-n3nccn3)c2)sc1C(C)O (stereo partly drawn) [Example 115, 1-[2-(6-amino-5-{(1R)-1-[5-fluoro-2-(2H-1,2,3-triazol-2-yl)phenyl]ethoxy}pyridin-3-yl)-4-methyl-1,3-thiazol-5-yl]ethanol] | 4.37 | 289 |
| C[C@@H](Oc1cc(-c2cccc(S(N)(=O)=O)c2)cnc1N)c1cc(F)ccc1-n1nccn1 [Example 113, 3-(6-amino-5-{(1R)-1-[5-fluoro-2-(2H-1,2,3-triazol-2-yl)phenyl]ethoxy}pyridin-3-yl)benzenesulfonamide] | 0.26 | 10.1 |
| COc1ncccc1-c1cnc(N)c(OC(C)c2cc(F)ccc2N2CCCC2=O)n1 (stereo not drawn) [Example 69, 1-[2-(1-{[3-amino-6-(2-methoxypyridin-3-yl)pyrazin-2-yl]oxy}ethyl)-4-fluorophenyl]pyrroli-din-2-one] | 1.1 | 52.6 |
| C[C@@H](Oc1cc(-c2ccnc(F)c2F)cnc1N)c1cc(F)ccc1-n1nccn1 [Example 129, 2′,3′-difluoro-5-{(1R)-1-[5-fluoro-2-(2H-1,2,3-triazol-2-yl)phenyl]ethoxy}-3,4′-bipyridin-6-amine] | 5.5 | 223 |
| Cc1nc(C(C)(C)O)sc1-c1cnc(N)c(O[C@H](C)c2cc(F)ccc2-n2nccn2)n1 [Example 103, 2-[5-(5-amino-6-{(1R)-1-[5-fluoro-2-(2H-1,2,3-triazol-2-yl)phenyl]ethoxy}pyrazin-2-yl)-4-methyl-1,3-thiazol-2-yl]propan-2-ol] | < 0.2 | 15 |
| CNCc1ccc(-c2cnc(N)c(OC(C)c3cc(F)ccc3OC)c2)cc1S(C)(=O)=O (stereo not drawn) [Example 134, 3-[1-(5-fluoro-2-methoxyphenyl)ethoxy]-5-{4-[(methylamino)methyl]-3-(methylsulfonyl)phenyl}pyridin-2-amine] | 0.12 | 9.1 |
| Cc1nn(CS(C)(=O)=O)c(C)c1-c1cnc(N)c(O[C@H](C)c2cc(F)ccc2-n2nccn2)c1 [Example 95, 5-{3,5-dimethyl-1-[(methylsulfonyl)methyl]-1H-pyrazol-4-yl}-3-{(1R)-1-[5-fluoro-2-(2H-1,2,3-triazol-2-yl)phenyl]ethoxy}pyridin-2-amine] | 0.2 | 13.8 |
| CNS(=O)(=O)c1cc(-c2cnc(N)c(O[C@H](C)c3cc(F)ccc3-n3nccn3)c2)ccc1OC [Example 142, 5-(6-amino-5-{(1R)-1-[5-fluoro-2-(2H-1,2,3-triazol-2-yl)phenyl]ethoxy}pyridin-3-yl)-2-methoxy-N-methylbenzenesulfonamide] | < 0.2 | 3.75 |
